Columns and labels:
Format in all cases: in vivo, albino rats
[1] = test system: acetyl salicylic acid induced gastric lesions; experiment: Acetyl salicylic acid (aspirin) induced gastric ulcer; set-up: Ulcer index Mean(SE): scale not given here; settings: rats, 25 mg/kg per orally daily for five days, aspirin 200 mg/kg; for inhibition at 25 mg/kg: Rattus norvegicus, po, 120 h
Procedure: Stress induced gastric ulceration The commercially available drug ranitidine (sigma), Omeprazole (sigma) and sucralfate (Merck) were used as reference standard in experimental models. The Tween-80 (SD fine chemicals) was used as vehicle for the administration of the drug, which is used as control. Antiulcer activity of the compounds under taken was studied. The animals were divided into 20 groups of 6 animals each. Group 1 received the vehicle Tween 80 (1%, 1 ml) which served as the control. Group 2 received ranitidine at a dose of 50-mg/kg body weight, which served as standard for comparison. Group 3 to 20 at a dose of 25 mg/kg body weight. Rats were administered per orally with a daily dose of the compounds and the drug ranitidine for a period of five days and then fasted for 24 hours. The […] acetyl salicylic acid (aspirin) at a dose of 200 mg/kg body weight was administered as a suspension in tween-80 (1%), 30 min after the drug administration each day. All drugs were administered orally on the 6th day after the last administration of the drugs and the ulcer inducing agent aspirin, the rats were killed by cervical dislocation and their stomach were opened along the greater curvature and washed with luke warm saline and examined under a dissecting microscope. The ulcer index was calculated for each stomach. […] The antiulcer activity of the compounds was studied. The animals were divided into 19 groups of 6 animals each. Group 1 received the vehicle Tween 80 (1%, 1 ml) which served as the control. Group 2 received ranitidine at a dose of 50-mg/kg-body weight, which served as standard for comparison. […] Rats were administered per orally with a daily dose of the compounds and the drug ranitidine to respective groups for a period of five days and then fasted for 24 hours. The […] acetyl salicylic acid (aspirin) at a dose of 200 mg/kg body weight was administered as a suspension in tween-80 (1%), 30 min after the drug administration each day. All drugs were administered orally on ht […] day after the last administration of the drugs and the ulcer inducing agent aspirin, the rats were killed by cervical dislocation and their stomach were opened along the greater curvature and washed with luke warm saline and examined under a dissecting microscope.

Pylorus ligated rats = experiment: Pylorus ligated ulcers; settings: 25 mg/kg, 4 hours after pylorus ligation; for inhibition at 25 mg/kg: Rattus norvegicus
From the text: (§1) The compounds taken under study for antigastric ulcer screening by four different models were selected using experimental albino rats: • 1. Aspirin induced gastric ulceration • 2. Pylorus ligated gastric ulceration • 3. Ethanol induced gastric ulceration • 4. Stress induced gastric ulceration
(§2) The commercially available drug ranitidine (sigma), Omeprazole (sigma) and sucralfate (Merck) were used as reference standard in experimental models. The Tween-80 (SD fine chemicals) was used as vehicle for the administration of the drug, which is used as control.
The animals were divided into 19 groups of 6 animals each. Animals were deprived of food for 48 hours but had free access to water. Group 1 received the vehicle Tween 80 (1%, 1 ml) which served as the control. Group 2 received ranitidine at a dose of 50-mg/kg-body weight, which served as standard for comparison. […] After one hour of administration of drug the stomach was ligated at the pylorus under ether anesthesia. 4 hours after pylorus ligation, the animals were sacrificed and the contents drained and centrifuges at 5000 rpm for 10 minutes. Aliquots of supernatant were used for determination of total acid by titrating with 0.01N NaOH using topfers reagent and phenolphthalein indicators. 4.
The animals were divided into 7 groups of 6 animals each. Animals were deprived of food for 48 hours but had free access to water. Group 1 received the vehicle Tween 80 (1%, 1 ml) which served as the control. Group 2 received ranitidine at a dose of 50-mg/kg-body weight, which served as standard for comparison. Group 3 to 7 received at a dose of 50, 25, 15, 10 and 5 mg/kg body weight respectively. After one hour of administration of drug the stomach was ligated at the pylorus under ether anesthesia. 4 hours after pylorus ligation, the animals were sacrificed and the contents drained and centrifuges at 5000 rpm for 10 minutes. Aliquots of supernatant were used for determination of total acid by titrating with 0.01N NaOH using topfers reagent and phenolphthalein indicators.

[2] = test system: gastric ulceration in cold restraint rats; experiment: Cold restraint (stress) induced ulcers; set-up: Ulcer index Mean(SE): scale not given here; settings: rats, 25 mg/kg per orally, 4° C. for 2 hours; for inhibition at 25 mg/kg: Rattus norvegicus, po
From the text: as §1, §2
(§3) The antiulcer activity of the compounds was studied. The animals were divided into 21 groups of 7 animals each. Group 1 received the vehicle Tween 80 (1%, 1 ml) which served as the control. Group 2 received ranitidine at a dose of 50-mg/kg body weight, which served as standard for comparison. Group 3 to 21 at a dose of 25 mg/kg body weight. Animals were deprived of food 48 hours before the experiment. The water was allowed for free access. Rats were administered per orally with compounds and the drug ranitidine. The water was removed 1 hour before restraint and exposed to a temperature of 4° C. for 2 hours. Two hours after stress, the animals were sacrificed. The stressed animals were opened along the greater curvature and the severity of gastric ulcer was assessed in terms of mean ulcer index. 2.
as §3, with “8” for “21”, “6” for “7”, “50, 25, 15, 10 and 5” for “25”, “weight respectively.” for “weight.”, “index.” for “index. 2.”

[3] = test system: ethanol induced gastric ulcers; experiment: Ethanol induced ulcers; settings: rats, 25 mg/kg, ethanol challenge; for inhibition at 25 mg/kg: Rattus norvegicus; for Acidity Total mEg / Gastric content / pH: 4 hours after pylorus ligation
Procedure: Stress induced gastric ulceration The commercially available drug ranitidine (sigma), Omeprazole (sigma) and sucralfate (Merck) were used as reference standard in experimental models. The Tween-80 (SD fine chemicals) was used as vehicle for the administration of the drug, which is used as control. The animals were divided into 22 groups of 6 animals each. Animals were deprived of food for 48 hours but had free access to water. Group 1 received the vehicle Tween 80 (1%, 1 ml) which served as the control. Group 2 received ranitidine at a dose of 50-mg/kg-body weight, which served as standard for comparison. Group 3 to received Omeprazole at a dose of 30-mg/kg body weight, which served as standard for comparison. Group 4 received sucralfate at a dose of 400-mg/kg body weight, which served as standard for comparison. Group 5 to 22 received at a dose of 25 mg/kg body weight. Lesions were induced 1 hour after ethanol challenge animals. The stomach was ligated at the pylorus under ether anesthesia. 4 hours after pylorus ligation, the animals were sacrificed and the contents drained and centrifuges at 5000 rpm for 10 minutes. Aliquots of supernatant were used for determination of total acid by titrating with 0.01N NaOH using topfers reagent and phenolphthalein indicators. […] The animals were divided into 9 groups of 6 animals each. Animals were deprived of food for 48 hours but had free access to water. Group 1 received the vehicle Tween 80 (1%, 1 ml) which served as the control. Group 2 received ranitidine at a dose of 50-mg/kg-body weight, which served as standard for comparison. Group 3 to received Omeprazole at a dose of 30-mg/kg body weight, which served as standard for comparison. Group 4 received sucralfate at a dose of 400-mg/kg body weight, which served as standard for comparison. […] Lesions were induced 1 hour after ethanol challenge animals. The stomach was ligated at the pylorus under ether anesthesia. 4 hours after pylorus ligation, the animals were sacrificed and the contents drained and centrifuges at 5000 rpm for 10 minutes. Aliquots of supernatant were used for determination of total acid by titrating with 0.01N NaOH using topfers reagent and phenolphthalein indicators.

For `O=c1cc(-c2ccccc2)oc2cc(OCCCN3CCCCC3)cc(O)c12` [CPP-2, 5-Hydroxy-2-phenyl-7-(3-piperidin-1-yl-propoxy)-chromen-4-one], the inhibition at 25 mg/kg [1] was 66.8%, the “Ulcer index Mean(SE)” value [1] was 14.99 and the “Acidity Total mEg” value (Pylorus ligated rats) was 29.06 (±2.20) m Eg. For the same molecule, the Gastric content (Pylorus ligated rats) was 2.60 (±0.24), the “Ulcer index Mean(SE)” value (Pylorus ligated rats) was 15.80 (±2.71) and the pH (Pylorus ligated rats) was 3.25 (±0.11). The inhibition at 25 mg/kg (Pylorus ligated rats) was 68.5%, the inhibition at 25 mg/kg [2] was 61.4% and the “Ulcer index Mean(SE)” value [2] was 15.71. The inhibition at 25 mg/kg [3] was 36.2%, the “Ulcer index Mean(SE)” value [3] was 28.83 (±2.71) and the “Acidity Total mEg” value [3] was 44.60 (±4.12) mEg. For the same molecule, the Gastric content [3] was 3.2 (±0.62) and the pH [3] was 3.33 (±0.16).
`O=c1cc(-c2ccccc2)oc2cc(O)cc(O)c12` [Chrysin, 5,7-dihydroxy-2-phenyl-chromen-4-one] was tested, and the inhibition at 25 mg/kg [1] was 46.7%, the “Ulcer index Mean(SE)” value [1] was 24.06 and the “Acidity Total mEg” value (Pylorus ligated rats) was 56.00 (±0.82) m Eg. The Gastric content (Pylorus ligated rats) was 1.85 (±0.82), the “Ulcer index Mean(SE)” value (Pylorus ligated rats) was 37.21 (±0.26) and the pH (Pylorus ligated rats) was 4.00 (±0.40). The inhibition at 25 mg/kg (Pylorus ligated rats) was 25.7%, the inhibition at 25 mg/kg [2] was 42.7% and the “Ulcer index Mean(SE)” value [2] was 23.03. For the same molecule, the inhibition at 25 mg/kg [3] was 9.01%, the “Ulcer index Mean(SE)” value [3] was 60.66 (±2.88) and the “Acidity Total mEg” value [3] was 48.00 (±2.20) mEg. For the same molecule, the Gastric content [3] was 4.20 (±0.02) and the pH [3] was 3.20 (±0.40).
`COc1cc(O)c2c(=O)cc(-c3ccccc3)oc2c1` [Methoxy chrysin, 5-hydroxy-7-methoxy-2-phenyl-chromen-4-one] was tested, and the inhibition at 25 mg/kg [1] was 11.3%, the “Ulcer index Mean(SE)” value [1] was 40.00 and the “Acidity Total mEg” value (Pylorus ligated rats) was 47.20 (±2.40) m Eg. The Gastric content (Pylorus ligated rats) was 2.20 (±0.44), the “Ulcer index Mean(SE)” value (Pylorus ligated rats) was 48.80 (±3.07) and the pH (Pylorus ligated rats) was 3.20 (±0.25). The inhibition at 25 mg/kg (Pylorus ligated rats) was 2.62%, the inhibition at 25 mg/kg [2] was 8.77% and the “Ulcer index Mean(SE)” value [2] was 27.14. The inhibition at 25 mg/kg [3] was 15%, the “Ulcer index Mean(SE)” value [3] was 46.66 (±1.66) and the “Acidity Total mEg” value [3] was 49.20 (±4.12) mEg. For the same molecule, the Gastric content [3] was 3.9 (±0.40) and the pH [3] was 2.91 (±0.15).
With `CN1CCN(CCCOc2cc(O)c3c(=O)cc(-c4ccccc4)oc3c2)CC1` [NMC-2, 5-Hydroxy-7-[3-(4-methyl-piperzin-1-yl]-propoxy)-2-phenyl hromen-4-one] the Inhibition % [1] was 48.30%, the “Ulcer index Mean(SE)” value [1] was 23.33 and the “Acidity Total mEg” value (Pylorus ligated rats) was 36.26 (±2.80) m Eg. The Gastric content (Pylorus ligated rats) was 1.90 (±0.62), the Inhibition % (Pylorus ligated rats) was 43.47% and the “Ulcer index Mean(SE)” value (Pylorus ligated rats) was 28.33 (±0.10). For the same molecule, the pH (Pylorus ligated rats) was 4.25 (±0.14), the Inhibition % [2] was 59.67% and the “Ulcer index Mean(SE)” value [2] was 16.42. The Inhibition % [3] was 57.50%, the “Ulcer index Mean(SE)” value [3] was 28.33 (±3.33) and the “Acidity Total mEg” value [3] was 30.26 (±0.42) mEg. The Gastric content [3] was 4.8 (±0.06) and the pH [3] was 4.75 (±0.28).
With `CN1CCN(CCCCOc2cc(O)c3c(=O)cc(-c4ccccc4)oc3c2)CC1` [NMC-3, 5-Hydroxy-7-[4-(4-methyl-piperzin-1-yl]-butoxy)-2-phenyl chromen-4-one] the Inhibition % [1] was 33.52%, the “Ulcer index Mean(SE)” value [1] was 30.00 and the “Acidity Total mEg” value (Pylorus ligated rats) was 43.48 (±2.50) m Eg. For the same molecule, the Gastric content (Pylorus ligated rats) was 1.92 (±0.20), the Inhibition % (Pylorus ligated rats) was 33.49% and the “Ulcer index Mean(SE)” value (Pylorus ligated rats) was 33.33 (±2.47). For the same molecule, the pH (Pylorus ligated rats) was 3.54 (±0.15), the Inhibition % [2] was 57.92% and the “Ulcer index Mean(SE)” value [2] was 17.13. The Inhibition % [3] was 36.25%, the “Ulcer index Mean(SE)” value [3] was 42.50 (±3.09) and the “Acidity Total mEg” value [3] was 33.48 (±2.28) mEg. The Gastric content [3] was 4.5 (±1.12) and the pH [3] was 4.50 (±0.18).
`COc1c(OC2OC(C(=O)O)C(O)C(O)C2O)cc2oc(-c3ccccc3)cc(=O)c2c1O` (stereo not drawn) [OA-5 acid, 3,4,5-Trihydroxy-6-(5-hydroxy-6-methoxy-4-oxo-2-phenyl-4H-chromen-7-yloxy)-tetrahydro-pyran-2-carboxylic acid] was tested, and the inhibition at 25 mg/kg [1] was 48.3%, the “Ulcer index Mean(SE)” value [1] was 23.33 and the “Acidity Total mEg” value (Pylorus ligated rats) was 41.00 (±0.57) m Eg. The Gastric content (Pylorus ligated rats) was 2.16 (±0.16), the “Ulcer index Mean(SE)” value (Pylorus ligated rats) was 38.33 (±1.66) and the pH (Pylorus ligated rats) was 3.03 (±0.03). The inhibition at 25 mg/kg (Pylorus ligated rats) was 23.5%, the inhibition at 25 mg/kg [2] was 41.9% and the “Ulcer index Mean(SE)” value [2] was 23.33. The inhibition at 25 mg/kg [3] was 45%, the “Ulcer index Mean(SE)” value [3] was 36.66 (±3.33) and the “Acidity Total mEg” value [3] was 47.66 (±1.45) mEg. The Gastric content [3] was 5.50 (±0.28) and the pH [3] was 3.20 (±0.17).

From patent US7855200B2, “Method for treatment of gastric ulcers and ulcers induced by aspirin” (Council of Scientific and Industrial Research, priority 2006, dated 2010)
